{
  "source": "patent US20220023269A1",
  "about": "“Methods Of Treating Diabetes In Severe Insulin-Resistant Diabetic Subjects” (Balticgruppen Bio AB, priority 2018, published 2022)",
  "key": {"[1]": {"test_system": "T2D patients on Metformin", "test": "Phase IIa clinical trial (TELLUS), 28 days", "format": "in vivo, human", "conditions": "for T2*-grad / Δ-T2*: group-averaged curve fitting", "experimental": "An exploratory proof-of-concept randomised, parallel-group, double-blinded, placebo-controlled phase IIa 28-day study (TELLUS) of the first-in-class AMPK activator (the test material; 1,000 mg/day) was conducted in 65 T2D patients on Metformin for months, aiming at further exploring safety of test material and the effect of test material on FPG at a single-dose level.\nMain inclusion criteria: Male and female patients, 18-80 years of age, with uncomplicated T2D, on stable T2D treatment with Metformin monotherapy for 3 months. HbA1c of ≥6.5% and 9.0%, and not FPG at day 1, was selected as the main inclusion criterion.\nMain exclusion criteria: History of myocardial infarction (MI), unstable angina, stroke or transient ischemic attack (TIA). Congestive heart failure defined as New York Heart Association (NYHA) class III-IV. Any clinically significant abnormalities in physical examination, ECG or clinical chemistry results, as judged by the Investigator.\nA good-manufacturing practice (GMP) batch of 5 kg test material was manufactured by Anthem BioSciences Pvt.Ltd, Bangalore, Karnataka, India. The suspension is composed of test material 20 mg/ml in 2% methylcellulose in phosphate buffer. A 2% methylcellulose suspension that colour matched the active product was used as placebo. The test material and placebo suspensions were manufactured, packaged and labelled by Recipharm Pharmaceutical Development AB, Solna, Sweden.\nSixty-five (65) patients were randomised (1:1) to treatment with either the material or placebo. A screening visit (Visit 1) was performed within 3 weeks before randomisation and the start of IMP administration. Patients were randomised on Day 1 (Visit 2) and allocated to 28 days' treatment with either test material or placebo (1:1). Study visits to the clinic were performed 7, 14, 21, 28, 29 and 40 days (Visits 3 to 8) following randomisation and start of treatment. The patients were confined to the research clinic from the evening before Day 1 and Day 28 (Day −1 and Day 27, respectively) to ensure fasting conditions before samples for analyses of FPG were collected. Magnetic Resonance Imaging (MRI) scans after screening but before day 1 and after end of treatment were performed at the University Hospital in Uppsala, Sweden, according to standardised methods. Antaros Medical in Uppsala performed the data analysis. A clinical read of the acquired scans was performed by a radiologist at Antaros Medical. If clinically significant findings were noted by the radiologist, the Investigator was notified of the finding. The Investigator was to evaluate and handle the finding as per standard medical/clinical judgment.\nAny findings were reported as either baseline events or adverse events, if they started, or worsened after administration of the first dose of IMP. The method used for assessing microvascular function in the calf muscle, (a proxy for oxygenation), include a dynamic MRI investigation of T2* determination before during and after reactive hyperemia (Reference 4). Sixty five (65) patients were randomised, 32 patients in the placebo group and 33 in the test material group, and 59 patients completed the study (28 and 31 in the two groups, respectively). HbA1c of 6.5% and 9.0%, and not FPG at day 1, was used as the inclusion criterion since MRI examinations had to be performed after screen but before day 1."}, "conscious beagle dogs": {"test_system": "conscious beagle dogs", "test": "Cardiovascular safety pharmacology study using radiotelemetry in conscious beagle dogs", "format": "in vivo", "conditions": "single oral doses 60, 180, 540 mg/kg", "experimental": "Telemetry analyses was performed by CiToxLAB North America (Laval, Quebec, Canada) in adult male beagle dogs, selected from CiToxLAB North America Dog Telemetry Colony, which had previously undergone surgery for telemetry transmitter implantation to monitor the arterial blood pressure, electrocardiogram, body temperature and locomotor activity (Data Science International, Model D70-PCT). All surgical procedures were performed in accordance with relevant Standard Operating Procedures. A telemetry transmitter was placed between the internal abdominal oblique muscle and the aponeurosis of the transverses abdominis of each animal. The pressure catheter was inserted into the femoral artery and the biopotential leads subcutaneously in a Lead II configuration. Test material was gavaged as a suspension at 60, 180, or 540 mg/kg."}, "[2]": {"molecular_target": "T1, PP2C-mediated dephosphorylation of p-T172 of human recombinant AMPKα, -β, and -γ trimers (Homo sapiens, UniProt P54619+P54646+Q9Y478)", "T1 construct": "purchased Life Technologies (AMPK trimer); Abcam (PP2Ca) PV4674 (Lot 1261361B); ab51205-100 (Lot GR54133-5)", "T1 sequence (P54646 whole entry)": "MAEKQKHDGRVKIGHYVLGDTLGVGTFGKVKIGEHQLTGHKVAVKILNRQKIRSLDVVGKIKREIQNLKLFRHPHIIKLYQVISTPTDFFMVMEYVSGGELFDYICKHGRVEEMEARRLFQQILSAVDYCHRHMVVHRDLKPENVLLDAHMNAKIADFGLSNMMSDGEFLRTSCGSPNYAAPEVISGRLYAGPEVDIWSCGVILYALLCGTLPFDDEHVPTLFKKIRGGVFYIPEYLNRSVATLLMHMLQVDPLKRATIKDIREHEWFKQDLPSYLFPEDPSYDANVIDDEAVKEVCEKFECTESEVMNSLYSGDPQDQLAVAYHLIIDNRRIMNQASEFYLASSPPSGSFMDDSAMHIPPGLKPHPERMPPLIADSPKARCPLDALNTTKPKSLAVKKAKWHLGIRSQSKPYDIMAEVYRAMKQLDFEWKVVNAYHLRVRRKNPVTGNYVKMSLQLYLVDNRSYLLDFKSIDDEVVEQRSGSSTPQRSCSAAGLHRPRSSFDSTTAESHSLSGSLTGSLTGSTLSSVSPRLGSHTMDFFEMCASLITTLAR", "T1 sequence (Q9Y478 2-270)": "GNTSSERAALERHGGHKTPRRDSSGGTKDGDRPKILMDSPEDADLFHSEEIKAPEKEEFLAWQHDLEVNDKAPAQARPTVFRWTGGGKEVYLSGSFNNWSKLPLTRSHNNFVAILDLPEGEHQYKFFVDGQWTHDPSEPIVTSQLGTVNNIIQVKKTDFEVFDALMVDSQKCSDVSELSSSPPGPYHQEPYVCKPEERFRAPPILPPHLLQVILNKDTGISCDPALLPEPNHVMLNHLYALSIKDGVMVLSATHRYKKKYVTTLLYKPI", "T1 sequence (P54619 whole entry)": "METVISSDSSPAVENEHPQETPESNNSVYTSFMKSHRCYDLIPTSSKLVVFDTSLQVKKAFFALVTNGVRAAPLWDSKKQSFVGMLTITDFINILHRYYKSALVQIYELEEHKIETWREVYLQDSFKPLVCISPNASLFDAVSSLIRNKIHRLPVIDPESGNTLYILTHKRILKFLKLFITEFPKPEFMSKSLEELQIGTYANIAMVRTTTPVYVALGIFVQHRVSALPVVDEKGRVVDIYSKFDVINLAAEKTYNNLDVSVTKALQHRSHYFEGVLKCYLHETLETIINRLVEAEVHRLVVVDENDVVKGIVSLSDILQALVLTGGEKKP", "test": "AMPK in vitro de-phosphorylation assay", "format": "biochemical", "experimental": "(§1) AMPKα2/β1/γ1 trimer (Life Technologies #PV4674, Lot 1261361B) (1 ng/μl) was incubated with 10 μM test material, 20 μM test material or 150 μM ADP (Sigma #A2754) +/−1 mM ATP (Sigma #A1852-1VL) in buffer (40 mM Hepes, 0.5 mM DTT, 0.2 mg/ml Gelatin (Sigma #G7041) and 0.4% DMSO), +/−PP2Ca (0.25-0.75 ng/μl) (Abcam ab51205-100; Lot GR54133-5) and 5 mM MnCl2 (total volume 20 μl). AMPKα2/β1/γ1+/−ATP was preincubated with the test material and ADP for 2 minutes at 30° C. before addition of PP2C/MnCl2 to start the dephosphorylation reaction which continued for 10-15 minutes at 30° C. Reactions were terminated by the addition of 0.17% BSA, 13 mM EDTA, 1.3×XT Sample buffer and 0.67% β-Mercaptoethanol in PBS. Samples were placed on ice, 5 minutes, heated at 100° C. for 5 minutes and chilled before run on a western gel. All steps were performed in high quality low-protein-binding eppendorf tubes. In a separate experiment 10 μM test material, 20 μM test material, 150 μM ADP alone or the combination of 10 μM test material+150 μM ADP and 20 μM test material+150 μM ADP was incubated with 1 ng/μl of AMPKα2/β1/γ1 or AMPKα1/β1/γ1 (Life Technologies #PV4672) trimer in buffer (40 mM Hepes, 0.5 mM DTT, 0.2 mg/ml gelatin and 0.4% DMSO)+/−0.25-0.5 ng/μl PP2Ca and 5 mM MnCl2 or 5 mM MgCl2. AMPK was sequentially preincubated with the test material and ADP or the combination for 2 minutes at 30° C. before sequential addition of PP2C/MnCl2 or PP2C/MgCl2 to start the dephosphorylation reaction which continued for 5-15 minutes at 30° C. The reaction was thereafter terminated and analysed as above."}, "[3]": {"test_system": "PP2C-mediated dephosphorylation of p-T172 of human recombinant AMPKα, -β, and -γ trimers", "test": "AMPK in vitro de-phosphorylation assay", "format": "biochemical", "conditions": "with 150 μM ADP", "experimental": "as §1"}, "[4]": {"conditions": "subjects with long TTP at baseline"}},
  "data": [
    {"molecule": "O=C(Nc1nc(=O)n(Cc2ccc(Cl)cc2)s1)c1ccc(Cl)cc1", "note": "[test material, 4-chloro-N-[2-[(4-chlorophenyl)methyl]-3-oxo-1,2,4-thiadiazol-5-yl]benzamide]", "values": [
      {"measurement": "mean absolute reduction in diastolic blood pressure, day 28 vs day 1", "setting": "[1]; 1,000 mg/day", "result": "−3.8", "unit": "mmHg"},
      {"measurement": "mean absolute reduction in systolic blood pressure, day 28 vs day 1", "setting": "[1]; 1,000 mg/day", "result": "−5.8", "unit": "mmHg"},
      {"measurement": "tolerability", "setting": "[1]; 1,000 mg/day, 28 days", "result": "well tolerated"},
      {"measurement": "HOMA-IR at day 28 compared with day 1", "setting": "[1]; 1,000 mg/day, Wilcoxon test within group", "result": "statistically significant both absolute (P=0.0097) and relative (P=0.017) reduction"},
      {"measurement": "change in mean heart rate at day 28 compared with baseline", "setting": "[1]; 1,000 mg/day, not significant", "result": "−1.6", "unit": "bpm"},
      {"measurement": "mean absolute reduction in FPG at day 28 compared with day 1", "setting": "[1]; 1,000 mg/day, post hoc, FPG >7 to <13.3 mmol/l at day 1", "result": -0.60, "unit": "mM"},
      {"measurement": "T2*-grad", "setting": "[1]; MR1 (screening/baseline)", "result": 0.528, "unit": "min⁻¹"},
      {"measurement": "Δ-T2*", "setting": "[1]; MR1 (screening/baseline)", "result": 0.072},
      {"measurement": "T2*-grad", "setting": "[1]; MR2 (day 27-29)", "result": 0.665, "unit": "min⁻¹"},
      {"measurement": "Δ-T2*", "setting": "[1]; MR2 (day 27-29)", "result": 0.081},
      {"measurement": "plasma t1/2", "setting": "[1]; T2D patients", "result": "long"},
      {"measurement": "time to plasma steady-state concentration", "setting": "[1]; T2D patients", "result": "≥ 14", "unit": "days"},
      {"measurement": "T2*-gradient at day 28 compared with baseline", "setting": "[1]; individual curve fitting, Wilcoxon within group", "result": "significant relative increase"},
      {"measurement": "Δ−T2* (hyperemic perfusion) at day 28 compared with baseline", "setting": "[1]; individual curve fitting, vs placebo, 2-way ANOVA", "result": "statistically significant increase"},
      {"measurement": "time-to-peak (TTP), MRI1 vs MRI2", "setting": "[1]; [4]", "result": "significant shortening of TTP"},
      {"measurement": "Δ−T2*, MRI1 vs MRI2", "setting": "[1]; [4]", "result": "increase"},
      {"measurement": "blood pressure (systolic and diastolic)", "setting": "conscious beagle dogs", "result": "acutely reduced blood pressure"},
      {"measurement": "PP2C-mediated dephosphorylation of p-T172 AMPK", "setting": "[2]; absence of ATP", "result": "suppressed"},
      {"measurement": "dephosphorylation of pAMPK", "setting": "[2]; presence of excess ATP (1.0 mM)", "result": "protected pAMPK from dephosphorylation"},
      {"measurement": "effect together with ADP on pAMPK dephosphorylation", "setting": "[3]", "result": "acted in an additive manner with ADP"}
    ]}
  ]
}
